Experimental data published in patent US20240407993A1, “PEPTIDE HAVING ANTI-AGING ACTIVITY, AND USE THEREOF” (CAREGEN CO., LTD., priority 2021, published 2024).

Tests used:
[1] = test system: Elastin; test: Elastin gene expression by RT-PCR in fibroblasts; assay type: cell-based, mouse; conditions: NIH3T3 cells, peptide 1, 10, 50 μM, 24 hours; FIGS. 1A, 1D
Method: First, NIH3T3 cells (mouse fibroblast cell line) were seeded in a 6-well plate at a cell density of 3×10^5 cell/well, and then the cells were cultured in DMEM medium containing 10% fetal bovine serum (FBS) for 24 hours. The cultured cells were washed once with serum free DMEM medium, and the peptide of the present invention was mixed in 1 mL of the serum free DMEM medium at each of concentrations of 1, 10, and 50 μM, and dispensed into the cells. A positive control (PC) was treated with 5 ng/ml of TGF-β1 instead of the above peptide. The cells were cultured in a CO2 incubator at 37° C. for 24 hours.
The cultured cells were washed twice with PBS, and RNA was extracted from the cells using easy blue (iNtRON, Cat. No.: 17061, Korea). The amount of RNA extracted was quantified, 1,000 ng of RNA was added per tube, and RT reaction was performed using a kit (enzynomics, Cat. No.: PT200, Korea). RT-PCR was performed using a PCR kit (enzynomics, Cat. No.: […], Korea). The sequences of the primers of collagen, fibronectin, and elastin used in RT-PCR and the sequence of the primer of GAPDH used to compare the total RNA amount of each treatment group are shown in [Table 2].

[2] = test system: NIH3T3 cells; test: Intracellular ROS level after UVA irradiation (DCFH-DA, FACS) in fibroblasts; assay type: cell-based, mouse; conditions: 8 J/cm^2 UVA, peptide 1, 10, 50 μM, 24 hours after irradiation, FIG. 4A
Method: The reactive oxygen species level increases when UV is irradiated. Therefore, it was confirmed whether the reactive oxygen species level decreased again and the aging phenomenon caused by oxidative stress in cells was inhibited when treated with the peptide of the present invention.
First, NIH3T3 cells and HaCaT cells were seeded in a 6-well plate at a cell density of 5×10^5 cell/well, respectively, and then the cells were cultured in DMEM medium containing 10% fetal bovine serum (FBS) for 24 hours. The cultured cells were washed once with serum free DMEM medium, and then the peptide of the present invention was mixed in 1 mL of the serum free DMEM medium at each of concentrations of 1, 10, and 50 μM, and dispensed into the cells. A positive control (PC) was treated with 2.5 mM of N-Acetylcysteine (NaC) instead of the above peptide.
The cells were cultured in a CO2 incubator at 37° C. for 1 hour. The medium of the cultured cells was transferred to a tube, 1 ml of PBS was added, and then the NIH3T3 cells were irradiated with 8 J/cm^2 of UVA and the HaCaT cells were irradiated with 15 mJ/cm^2 of UVB using a UV irradiator (VILBER LOURMAT, Cat No.: 3102-BSU, France). […] After centrifugation, the cells were washed with PBS, and a fluorescence value was measured through FACS.

[3] = test system: Elastin; test: Elastin mRNA level decreased by UV irradiation, RT-PCR in fibroblasts; assay type: cell-based, mouse; conditions: NIH3T3 cells, 8 J/cm^2 UVA, peptide 1, 10, 50 μM, 6 hours after irradiation; FIGS. 5A, 5D
Method: The expression of genes related to extracellular matrix components is inhibited when irradiated with UV.
First, NIH3T3 cells were seeded in a 6-well plate at a cell density of 5×10^5 cell/well, and then the cells were cultured in DMEM medium containing 10% fetal bovine serum (FBS) for 24 hours. The cultured cells were washed once with serum free DMEM medium, and then the peptide of the present invention was mixed in 1 mL of the serum free DMEM medium at each of concentrations of 1, 10, and 50 μM, and dispensed into the cells. A positive control (PC) was treated with 50 μM of Quercetin instead of the above peptide. The cells were cultured in a CO2 incubator at 37° C. for 1 hour.
The medium of the cultured cells was transferred to a tube (e-tube), 1 ml of PBS was added, and irradiation was performed with 8 J/cm^2 of UVA using a UV irradiator (VILBER LOURMAT, Cat No.: 3102-BSU, France). After removing PBS, 900 μL of the medium transferred to the tube was dispensed, and culture was performed in a CO2 incubator at 37° C. for 6 hours. The cultured cells were washed twice with PBS, and then RNA was extracted from the cells using easy blue (iNtRON, Cat. No.: 17061, Korea). The amount of RNA extracted was quantified, 1,000 ng of RNA was added per tube, and RT reaction was performed using a kit (enzynomics, Cat. No.: RT200, Korea). […]

[4] = test system: SIRT1; test: SIRT1 mRNA level by RT-PCR in keratinocytes; assay type: cell-based, human; conditions: HaCaT cells, peptide 1, 10, 50 μM, 24 hours; FIGS. 3A, 3B
Method: First, HaCaT cells were seeded in a 6-well plate at a cell density of 3×10^5 cell/well, and then the cells were cultured in DMEM medium containing 10% fetal bovine serum (FBS) for 24 hours. The cultured cells were washed once with serum free DMEM medium, and then the peptide of the present invention was mixed in 1 mL of the serum free DMEM medium at each of concentrations of 1, 10, and 50 μM, and dispensed into the cells. A positive control (PC) was treated with 100 nM of EGF instead of the above peptide. The cells were cultured in a CO2 incubator at 37° C. for 24 hours.
The cultured cells were washed twice with PBS, and then RNA was extracted from the cells using easy blue (iNtRON, Cat. No.: 17061, Korea). The extracted RNA was subjected to RT reaction using a kit (enzynomics, Cat. No.: RT200, Korea). Thereafter, RT-PCR was performed using a PCR kit (enzynomics, Cat. No.: R581T, Korea). The sequences of the primers of AQP3 and SIRT1 used in RT-PCR and the sequence of the primer of GAPDH used to compare the total RNA amount of each treatment group are shown in [Table 2].

Sequence: LCACCLHNCNECQ
- expression of the elastin gene [1]: gradually increased as a concentration of the peptide increased
- intracellular reactive oxygen species level increased by UV irradiation [2]: decreased
- mRNA level of elastin decreased by UV irradiation [3]: increased again
- mRNA level of SIRT1 [4]: increased
